Reference: article PMC7562955 (Nature Communications, 2020)

Biological target: T1, mouse TLR7 (Mus musculus, UniProt P58681)
T1 construct: host or cells: HEK293 (293XL-mTLR7)
T1 sequence (P58681 27-1050): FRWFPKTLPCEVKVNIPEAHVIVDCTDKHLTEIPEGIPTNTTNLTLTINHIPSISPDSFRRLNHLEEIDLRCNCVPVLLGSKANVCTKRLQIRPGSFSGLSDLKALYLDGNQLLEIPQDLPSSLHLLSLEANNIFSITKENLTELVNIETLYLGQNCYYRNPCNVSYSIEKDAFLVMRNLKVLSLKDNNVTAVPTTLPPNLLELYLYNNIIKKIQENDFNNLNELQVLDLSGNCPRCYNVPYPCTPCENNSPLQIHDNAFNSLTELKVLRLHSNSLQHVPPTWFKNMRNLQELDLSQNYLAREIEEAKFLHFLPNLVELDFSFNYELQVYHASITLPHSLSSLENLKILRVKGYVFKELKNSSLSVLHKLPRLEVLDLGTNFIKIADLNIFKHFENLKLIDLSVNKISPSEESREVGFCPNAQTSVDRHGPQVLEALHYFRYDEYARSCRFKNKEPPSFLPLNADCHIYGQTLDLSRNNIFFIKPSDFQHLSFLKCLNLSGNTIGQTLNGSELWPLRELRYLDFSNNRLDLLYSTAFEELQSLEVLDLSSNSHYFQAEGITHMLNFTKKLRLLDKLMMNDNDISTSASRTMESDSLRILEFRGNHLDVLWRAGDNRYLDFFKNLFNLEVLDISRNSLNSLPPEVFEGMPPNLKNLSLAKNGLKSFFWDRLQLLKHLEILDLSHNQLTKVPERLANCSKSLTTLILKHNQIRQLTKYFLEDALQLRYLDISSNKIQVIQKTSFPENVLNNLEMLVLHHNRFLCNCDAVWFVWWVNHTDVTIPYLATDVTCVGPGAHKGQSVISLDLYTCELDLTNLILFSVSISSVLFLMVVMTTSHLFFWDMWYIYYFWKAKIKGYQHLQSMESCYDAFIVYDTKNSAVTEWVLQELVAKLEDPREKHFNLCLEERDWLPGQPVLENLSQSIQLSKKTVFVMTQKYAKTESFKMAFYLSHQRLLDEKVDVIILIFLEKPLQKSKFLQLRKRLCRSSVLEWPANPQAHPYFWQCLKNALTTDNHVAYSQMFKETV
Test: Mouse TLR7 reporter gene assay (NF-kB luciferase, HEK293)
Format: cell-based
Method: Compounds were dissolved in dimethyl sulfoxide. The day before transfection, mouse TLR7 genestably-expressing HE293 cell line (293XL-mTLR7 cell, InvivoGen, USA) and mouse TLR9 genestably-expressing HEK293 cell line (293-mTLR9 cell, InvivoGen) were seeded in collagen-coated 6-well plate (AGC techno glass) at 3 × 10^5 cells/well in DMEM (GIBCO) with 10% fetal bovine serum (GIBCO), and 10 μg ml^−1 Blastcidin S HCl (GIBCO) and incubated at 37 °C in 5% CO2. The plates were incubated over-night and then cotransfected with 1 μg (mouse TLR7) or 0.3 μg (mouse TLR9) of pNF-kB-Luciferase reporter in a 10:1 ratio with 4 μl of FuGene6 transfection reagent (Promega corporation, USA) following the manufacturer’s instructions. The plates were incubated 24 h. The cells re-seeded into 96-well plate (AGC techno glass) at 2 × 10^4 cells/well in DMEM (GIBCO) with 10% fetal bovine serum (GIBCO), and 10 μg ml^−1 Blastcidin S HCl (GIBCO) and then inhibition with various concentrations of compound. HCQ (mouse TLR7/9, Acros Organics, United Kingdom) was used as positive control. After 30 min, R848 (mouse TLR7/8 ligand) or CpG1826 (mouse TLR9 ligand, Hokkaido System Science Co., Ltd.) added to each well, wherein each final concentration were adjusted to 200 nM R848 (mouse TLR7) or 100 nM CpG1826 (mouse TLR9). The plates were then incubated an additional 6 h at 37 °C in 5% CO2, and then the luciferase activity was measured as activation of mouse TLR7 and 9. The luciferase activity was evaluated as follows: Bright-GloTM Luciferase Assay System (Promega) was added to the incubated sample (100 μl/well); after 2 min, the luminescence intensity of each sample was measured with a luminometer (Envision).

[1] = compound 0.0001 nM (as headed), R848 200 nM
[2] = compound 0.001 nM (as headed), R848 200 nM
[3] = compound 0.003 nM (as headed), R848 200 nM
[4] = compound 0.01 nM (as headed), R848 200 nM
[5] = compound 0.03 nM (as headed), R848 200 nM
[6] = compound 0.1 nM (as headed), R848 200 nM
[7] = compound 0.3 nM (as headed), R848 200 nM
[8] = compound 1 nM (as headed), R848 200 nM
[9] = compound 3 nM (as headed), R848 200 nM
[10] = compound 10 nM (as headed), R848 200 nM
[11] = compound 30 nM (as headed), R848 200 nM
[12] = compound 100 nM (as headed), R848 200 nM

| Structure (SMILES) | selectivity mouse TLR7 vs TLR9 | IC50 (R848 200 nM) | mouse TLR7 activity, reporter signal [1] | mouse TLR7 activity, reporter signal [2] | mouse TLR7 activity, reporter signal [3] | mouse TLR7 activity, reporter signal [4] | mouse TLR7 activity, reporter signal [5] | mouse TLR7 activity, reporter signal [6] | mouse TLR7 activity, reporter signal [7] | mouse TLR7 activity, reporter signal [8] | mouse TLR7 activity, reporter signal [9] | mouse TLR7 activity, reporter signal [10] | mouse TLR7 activity, reporter signal [11] | mouse TLR7 activity, reporter signal [12] |
| --- | --- | --- | --- | --- | --- | --- | --- | --- | --- | --- | --- | --- | --- | --- |
| CCOc1nc(C)c2nc(-c3cncc(F)c3)n(Cc3ccc(CN4C[C@@H]5C[C@H]4CN5C)cc3)c2n1 [Cpd-7] | TLR7-selective | 0.192 µM | 7166 | 5248 | 4474 | 4918 | 5112 | 4262 | 2860 | 1240 | 1308 | 550 | 0 | 0 |
| CCN(CCO)CCCC(C)Nc1ccnc2cc(Cl)ccc12 (centres unmarked) [HCQ, hydroxychloroquine, reference compound] |  |  | 7166 | 7642 | 8310 | 7288 | 6268 | 6670 | 9264 | 7190 | 9456 | 3934 | 558 | 1958 |
